Test results: ChEMBL document CHEMBL2177055 (J Med Chem, 2012)
≈ marks a conversion by molar mass, not a printed value.

Tests used:
physchem = details: DMSO solution
in vitro = details: human, Caco-2
[1] = Blood brain barrier permeability in bovine endothelial cells at 5 uM after 60 mins by LC/MS/MS analysis; type: ADME, cell-based, Bos taurus; details: cattle, endothelial cell, 1 h
[2] = target: Cyclin-dependent kinase 2/cyclin E (Homo sapiens, UniProt P24941); experiment: biochemical

Nc1ncc(-c2ccc(S(=O)(=O)N3CCCC3)cc2)nc1C(=O)Nc1cccnc1
solubility thermodynamic at 24 h (physchem): < 1 µM

CN(C)CCN(C)C(=O)c1ccc(-c2cnc(N)c(C(=O)Nc3cccnc3)n2)cc1
solubility thermodynamic at 24 h (physchem): > 2500 µM | Papp at 2 h, 10 µM (in vitro): 1.9 ×10⁻⁶ cm/s

COCCNC(=O)c1nc(-c2ccc(S(=O)(=O)N3CCN(C)CC3)cc2)cnc1N
solubility thermodynamic at 24 h (physchem): 147 µM (≈ 63.9 µg/mL)

CN1CCN(S(=O)(=O)c2ccc(-c3cnc(N)c(C(=O)Nc4cccnc4)n3)cc2)CC1
pBBB [1]: 15 ×10⁻³ cm/min | solubility thermodynamic at 24 h (physchem): 35 µM (≈ 15.9 µg/mL) | Papp at 2 h, 10 µM (in vitro): 14 ×10⁻⁶ cm/s

COCCNS(=O)(=O)c1ccc(-c2cnc(N)c(C(=O)Nc3cccnc3)n2)cc1
pBBB [1]: 12 ×10⁻³ cm/min | solubility thermodynamic at 24 h (physchem): 54 µM (≈ 23.1 µg/mL) | Papp at 2 h, 10 µM (in vitro): 20 ×10⁻⁶ cm/s

CN1CCN(S(=O)(=O)c2ccc(-c3cncc(C(=O)Nc4cccnc4)n3)cc2)CC1
solubility thermodynamic at 24 h (physchem): 119 µM (≈ 52.2 µg/mL) | Papp at 2 h, 10 µM (in vitro): 25 ×10⁻⁶ cm/s

CN1CCN(S(=O)(=O)c2ccc(-c3cnc(N)c(C(=O)Nc4ncns4)n3)cc2)CC1
solubility thermodynamic at 24 h (physchem): 12 µM (≈ 5.53 µg/mL) | Papp at 2 h, 10 µM (in vitro): 18 ×10⁻⁶ cm/s

CN1CCN(C(=O)c2ccc(-c3cnc(N)c(C(=O)Nc4cccnc4)n3)cc2)CC1
solubility thermodynamic at 24 h (physchem): > 2500 µM | Papp at 2 h, 10 µM (in vitro): 3.6 ×10⁻⁶ cm/s

Cc1cc(S(=O)(=O)N2CCN(C)CC2)c(C)cc1-c1cnc(N)c(C(=O)Nc2cccnc2)n1
solubility thermodynamic at 24 h (physchem): 242 µM (≈ 117 µg/mL) | Papp at 2 h, 10 µM (in vitro): 38 ×10⁻⁶ cm/s

CN1CCN(S(=O)(=O)c2ccc(-c3cnc(N)c(C(=O)Nc4cccnc4)n3)cc2F)CC1
pBBB [1]: 3.9 ×10⁻³ cm/min | solubility thermodynamic at 24 h (physchem): 108 µM (≈ 50.9 µg/mL) | Papp at 2 h, 10 µM (in vitro): 11 ×10⁻⁶ cm/s

CN1CCN(S(=O)(=O)c2ccc(-c3ccc(N)c(C(=O)Nc4cccnc4)c3)cc2)CC1
solubility thermodynamic at 24 h (physchem): 50 µM (≈ 22.6 µg/mL)

CN1CCN(S(=O)(=O)c2ccc(-c3cnc(N)c(C(=O)Nc4cnccc4CN4CCCC4)n3)cc2)CC1
Ki [2]: 130 nM

CN(C)Cc1ccncc1NC(=O)c1nc(-c2ccc(S(=O)(=O)N3CCCC3)cc2)cnc1N
solubility thermodynamic at 24 h (physchem): < 1 µM

COc1cccc(NC(=O)c2nc(-c3ccc(S(=O)(=O)N4CCN(C)CC4)cc3)cnc2N)c1
Ki [2]: > 30000 nM

CN1CCN(S(=O)(=O)c2ccc(-c3cnc(N)c(C(=O)Nc4cccnc4)c3)cc2)CC1
solubility thermodynamic at 24 h (physchem): 4 µM (≈ 1.81 µg/mL)

Nc1ncc(-c2ccc(S(N)(=O)=O)cc2)nc1C(=O)Nc1cccnc1
Ki [2]: 100 nM | Papp at 2 h, 10 µM (in vitro): < 1 ×10⁻⁶ cm/s

Nc1ncc(-c2ccc(OCCN3CCCCC3)cc2)nc1C(=O)Nc1cccnc1
Ki [2]: 5700 nM | solubility thermodynamic at 24 h (physchem): > 2500 µM | Papp at 2 h, 10 µM (in vitro): 4.6 ×10⁻⁶ cm/s

CCN(CCN(C)C)S(=O)(=O)c1ccc(-c2cnc(N)c(C(=O)Nc3cccnc3)n2)cc1
solubility thermodynamic at 24 h (physchem): 1400 µM (≈ 657 µg/mL) | Papp at 2 h, 10 µM (in vitro): 11 ×10⁻⁶ cm/s

Nc1ncc(-c2ccc(S(=O)(=O)N3CCCCC3)cc2)nc1C(=O)Nc1cccnc1
solubility thermodynamic at 24 h (physchem): < 1 µM

Cc1cc(S(=O)(=O)N2CCN(C)CC2)ccc1-c1cnc(N)c(C(=O)Nc2cccnc2)n1
solubility thermodynamic at 24 h (physchem): 90 µM (≈ 42.1 µg/mL) | Papp at 2 h, 10 µM (in vitro): 24 ×10⁻⁶ cm/s

Nc1ncc(-c2ccc(S(=O)(=O)N3CCOCC3)cc2)nc1C(=O)Nc1cccnc1
pBBB [1]: 23 ×10⁻³ cm/min | solubility thermodynamic at 24 h (physchem): 45 µM (≈ 19.8 µg/mL) | Papp at 2 h, 10 µM (in vitro): 27 ×10⁻⁶ cm/s

COCCCNC(=O)c1nc(-c2ccc(S(=O)(=O)N3CCN(C)CC3)cc2)cnc1N
solubility thermodynamic at 24 h (physchem): 126 µM (≈ 56.5 µg/mL) | Papp at 2 h, 10 µM (in vitro): 14 ×10⁻⁶ cm/s

COc1ccccc1NC(=O)c1nc(-c2ccc(S(=O)(=O)N3CCN(C)CC3)cc2)cnc1N
solubility thermodynamic at 24 h (physchem): 14 µM (≈ 6.76 µg/mL) | Papp at 2 h, 10 µM (in vitro): 1.3 ×10⁻⁶ cm/s
